Consider one compound from ChEMBL document CHEMBL1153802, “Human plasma-mediated hypoxic activation of indolequinone-based naloxone pro-drugs” (Bioorg Med Chem Lett, 2009).

The subject of the data set is Plasma. As to the kind of experiment: Prodrug stability in human plasma assessed as […] release under normoxic condition after 24 hrs by HPLC analysis. The class given is ADME, cell-free.

`C=CCN1CC[C@]23c4c5ccc(OC(=O)N(C)CCN(C)C(=O)OCc6c7c(n(C(=O)NCCOCCOCCNC(=O)OC(C)(C)C)c6C)C(=O)C=C(OC)C7=O)c4O[C@H]2C(=O)CC[C@@]3(O)[C@H]1C5`: the Stability entry is given as “Unstable”.
